A short description of series [1]: Lipophilicity, logP of compound. The series is classed as physicochemical. The conditions noted are these: octanol/water.
Series [2] concerns the target T1, Lanosterol 14-alpha demethylase (Homo sapiens, UniProt Q16850).
T1 sequence (Q16850 whole entry): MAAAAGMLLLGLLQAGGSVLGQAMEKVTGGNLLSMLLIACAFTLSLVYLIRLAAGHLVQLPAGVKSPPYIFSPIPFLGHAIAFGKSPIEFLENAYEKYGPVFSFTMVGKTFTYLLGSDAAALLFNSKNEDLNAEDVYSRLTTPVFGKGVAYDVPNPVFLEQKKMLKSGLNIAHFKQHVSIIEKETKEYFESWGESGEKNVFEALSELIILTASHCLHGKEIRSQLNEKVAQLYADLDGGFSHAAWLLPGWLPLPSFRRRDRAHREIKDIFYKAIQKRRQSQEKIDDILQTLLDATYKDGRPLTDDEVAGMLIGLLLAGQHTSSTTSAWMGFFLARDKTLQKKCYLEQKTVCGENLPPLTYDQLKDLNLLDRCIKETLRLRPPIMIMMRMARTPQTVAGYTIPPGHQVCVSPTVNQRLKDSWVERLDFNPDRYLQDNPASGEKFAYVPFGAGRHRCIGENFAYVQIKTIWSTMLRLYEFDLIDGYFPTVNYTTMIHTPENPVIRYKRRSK
Description: Binding affinity to recombinant full length human CYP51 expressed in Escherichia coli incubated for 30 sec using [3H] labelled substrate by HPLC analysis.

The target of series [3] is T1, Lanosterol 14-alpha demethylase. Description: Inhibition of recombinant full length human CYP51 expressed in Escherichia coli incubated for 1 min using [3H] lanosterol as substrate by HPLC analysis.
For series [4] the target is unchanged. Description: Inhibition of recombinant full length human CYP51 expressed in Escherichia coli incubated for 1 hr using [3H] lanosterol as substrate by HPLC analysis.
For series [5], the target named is T2, CYP51 (lanosterol 14-alpha demethylase) (Homo sapiens, UniProt Q16850).
T2 sequence (Q16850 whole entry): T1 sequence (Q16850 whole entry)
Description: Inhibition of recombinant full length human CYP51 expressed in Escherichia coli at inhibitor/enzyme ratio 25/1 incubated for 1 hr using [3H] lanosterol as substrate by HPLC analysis relative to control. The settings on record: probe [3H] lanosterol.

Series [6] deals with T2, CYP51 (lanosterol 14-alpha demethylase). Description: Inhibition of recombinant full length human CYP51 expressed in Escherichia coli at inhibitor/enzyme ratio 50/1 incubated for 1 hr using [3H] lanosterol as substrate by HPLC analysis relative to control. The settings on record: probe [3H] lanosterol. On the set-up: concentration or dose not given beside the values.
Series [7] can be described thus: Inhibition of human CYP51 T314I mutant expressed in Escherichia coli incubated for 1 hr using [3H] lanosterol as substrate by HPLC analysis.
For series [8], the system named is A549. Description: Antiproliferative activity against human A549 cells assessed as reduction in cell viability incubated for 24 hrs by BrdU based ELISA. The settings on record: A549, 24 h. It counts as functional.
Series [9] concerns A-431. Description: Antiproliferative activity against human A431 cells assessed as reduction in cell viability incubated for 24 hrs by BrdU based ELISA. The series is classed as functional. The settings on record: A-431, 24 h.
Series [10] concerns MDA-MB-436. Description: Antiproliferative activity against human MDA-MB-436 cells assessed as reduction in cell viability incubated for 24 hrs by BrdU based ELISA. It counts as functional. The conditions noted are these: MDA-MB-436, 24 h.
In series [11] the test system is MCF7. Description: Antiproliferative activity against human MCF7 cells assessed as reduction in cell viability incubated for 24 hrs by BrdU based ELISA. It counts as functional. The settings on record: MCF7, 24 h. In general terms: ELISA stands for enzyme-linked immunosorbent assay.

Molecules are shown by their SMILES.

What is called logP is the decadic logarithm of the partition coefficient of the neutral form, usually between octanol and water. By Kd is commonly meant a measure of binding affinity in units of concentration. The term IC50 denotes the concentration at which inhibition is half-maximal. What is called inhibition is the percentage by which the read-out fell short of the control. For orientation: EC50 means the concentration that produces a half-maximal response.

Turning to `O=C(N[C@@H](Cn1ccnc1)c1ccc(-c2ccc(F)cc2)cc1Cl)c1ccc(-c2nnc(-c3cc(F)cc(-c4ncncc4F)c3)o2)cc1`, the logP in series [1] (read-out: logP) was determined as 6.3. In addition, in series [2], the Kd is 0.09 µM. For the same molecule, the IC50 in series [3] is less than 0.5 µM; in series [4] it was less than 1 µM. Moreover, the inhibition at 1 h in series [5] and in series [6] was 98% each time.

Regarding `O=C(N[C@@H](Cn1ccnc1)c1ccc(-c2ccc(F)cc2)cc1Cl)c1ccc(-c2nnc(-c3ccccc3)o2)cc1`, the logP in series [1] turned out to be 6.9. Also, the IC50 is 2.1 µM in series [7], less than 0.5 µM in series [3] and 5.9 µM in [4]. Moreover, the inhibition at 1 h in series [5] amounted to 73%; in [6], 91%.

Take `O=C(N[C@@H](Cn1ccnc1)c1ccc(-c2ccc(F)cc2)cc1-c1ccccc1)c1ccc(-c2nnc(-c3ccccc3)o2)cc1`: the logP in series [1] (read-out: logP) turned out to be 5.3. Further, the results for the IC50 in series [3] and in series [4] were 1.5 µM and greater than 25 µM, respectively. Besides, the inhibition at 1 h in [5] amounted to 0%; in [6], 41%.

With `O=C(N[C@@H](Cn1ccnc1)c1ccc(-c2ccc(F)cc2)cc1Cl)c1ccc(-c2nnc(-c3cc(F)cc(-c4ccccn4)c3)o2)cc1`, in [1] (read-out: logP), the logP worked out at 6.8. Also, in series [2], the Kd was found to be 0.15 µM. For the same molecule, the IC50 in [3] was less than 0.5 µM; in series [4] it was less than 1 µM. For the same molecule, the inhibition at 1 h in series [5] stood at 95%; in [6], 96%.

As to `COc1ccc(-c2cc(-c3ccc(F)cc3)ccc2[C@H](Cn2ccnc2)NC(=O)c2ccc(-c3nnc(-c4ccccc4)o3)cc2)cc1`, the logP in [1] (read-out: logP) amounted to 5.8. For the same molecule, the IC50 in [3] was 12 µM; in series [4], greater than 25 µM. Further, the inhibition at 1 h in series [5] and in series [6] was 0% throughout.

Take `O=C(N[C@@H](Cn1ccnc1)c1ccc(-c2ccc(F)cc2)cc1F)c1ccc(-c2nnc(-c3ccccc3)o2)cc1`: the log partition coefficient (logP) in series [1] (read-out: logP) came to 5.4. Besides, in [2], the Kd is 0.09 µM. Also, the EC50 in series [8], in series [9], in series [10] and in [11] was 10 to 30 µM throughout. For the same molecule, the IC50 was less than 0.5 µM in series [3] and 24.4 µM in [4]. The figures for the inhibition at 1 h in [5] and in series [6] were 33% and 64%, respectively.

Turning to `CS(=O)(=O)c1cc(Br)cc(-c2nnc(-c3ccc(C(=O)N[C@@H](Cn4ccnc4)c4ccc(-c5ccc(F)cc5)cc4Cl)cc3)o2)c1`, the logP in [1] (read-out: logP) came out at 5.4. In addition, the Kd in [2] was 0.13 µM. Further, the IC50 was less than 0.5 µM in series [3] and 3.6 µM in series [4]. Also, the inhibition at 1 h in series [5] was found to be 82%; in [6], 89%.

With `O=C(N[C@@H](Cn1ccnc1)c1ccc(-c2ccc(F)cc2)cc1Cl)c1ccc(-c2nnc(-c3cc(Br)cc4ccccc34)o2)cc1`, the lipophilicity (logP) in series [1] (read-out: logP) was determined as 7.7. In [2], the Kd amounted to 0.47 µM. For the same molecule, the IC50 is less than 0.5 µM in [3] and 15 µM in series [4]. Moreover, the inhibition at 1 h in series [5] came to 25%; in [6] it was 73%.

On to `CS(=O)(=O)c1cc(-c2ccccn2)cc(-c2nnc(-c3ccc(C(=O)N[C@@H](Cn4ccnc4)c4ccc(-c5ccc(F)cc5)cc4Cl)cc3)o2)c1`, for which the logP in series [1] (read-out: logP) came to 5.3. In addition, the Kd in series [2] was found to be 0.02 µM. The IC50 in series [3] is less than 0.5 µM; in series [4], 4.4 µM. Also, the inhibition at 1 h is 82% in series [5] and 90% in series [6].

Turning to `O=C(N[C@@H](Cn1ccnc1)c1ccc(-c2ccc(F)cc2)cc1-c1ccco1)c1ccc(-c2nnc(-c3ccccc3)o2)cc1`, in series [1] (read-out: logP), the logP was 5.8. Moreover, the IC50 in series [3] was 5.2 µM; in series [4] it was greater than 25 µM. The inhibition at 1 h in series [5] was 0%; in series [6], 8%.

Regarding `O=C(N[C@@H](Cn1ccnc1)c1ccc(-c2ccc(F)cc2)c2ccccc12)c1ccc(-c2nnc(-c3ccccc3)o2)cc1`, the logP in series [1] (read-out: logP) was found to be 5.8. In addition, the values for the half-maximal inhibitory concentration (IC50) in series [3] and in series [4] were 3 µM and greater than 25 µM, respectively. The inhibition at 1 h came out at 0% in [5] and 1% in [6].

As to `O=C(N[C@@H](Cn1ccnc1)c1ccc(-c2ccc(F)cc2)cc1Cl)c1ccc(-c2nnc(-c3cc(-c4ccccn4)ccc3F)o2)cc1`, the log partition coefficient (logP) in series [1] (read-out: logP) was 6.8. For the same molecule, in series [6], the inhibition at 1 h stood at 93%.
